# According to patent US12129265B2, “Therapeutic agents and uses thereof” (Ankh Life Sciences Limited, priority 2020, dated 2024):
# Legend:
# Test in all cases: CellTiter-Glo in vitro cell proliferation assay, Example 8
# Format in all cases: cell-based, Human
# RPMI-8226 cells = details: RPMI-8226, HMM
# Procedure: (§1) Each proliferation assay was carried out as follows. The test cells were plated in growth media using a 384-well microtiter plate at 50 μL volume. The cells were incubated for 24 hours at 37° C. in a humidified incubator. After 24 hours of incubation, the test compounds were added to the test wells in DSMO solvent, at concentrations ranging from 0.0075-100 μM. Control wells received equal volumes of DSMO, without compound. Following drugging, the cells were incubated for 72 hours at 37° C. in a humidified incubator. After this exposure, 100 μL of a 1:1 mixture of sterile water and CellTiter-Glo® reagent (Promega) was added to each well. The plates were then incubated for 60 minutes at room temperature, followed by recording the luminescence value of each well using a luminometer as a measure of cell proliferation.
# In this example, different cell lines were subjected to in vitro cell proliferation assays as described in Example 8. In particular, the cell lines are identified in the following Table 17, and the tissue types were: Pancreatic; Endometrial; Triple-Negative Breast Cancer (TNBC); Non-Small-Cell Lung Carcinoma (NSCLC); Ovarian; Renal Cell Carcinoma (RCC); Cervical-Squamous Cell; […] (H&N-Squamous Cell); Germinal Center B Cell-Like Novo Diffuse Large B-Cell Lymphoma (GCB-DLBCL); Activated B-Cell—Diffuse Large B Cell Lymphoma (ABC-DLBCL); Human Myeloma; Human Myeloma Cell Line Lymphocyte-Like; Human Myeloma Cell Line Lymphocyte-Like Myeloma Pleural Effusion Infiltration; Human Multiple Myeloma; Plasma Cell Leukemia/Multiple Myeloma Epstein-Barr Nuclear Antigen-Negative (EBNA-Negative) and to Express mRNA for Proto-Oncogene B-Cell Lymphoma 2 (BCL2); Multiple Myeloma from Peripheral Blood Type IgD Lmabda.
# FaDu cells = details: H&N - SC, read-out: Mean IC50
# Procedure: (§2) In this Example, in vitro cell proliferation assays were performed using: (1) Human Myeloma tumor cell lines; (2) Human Lymphoma tumor cell lines; (3) Solid Human tumor cell lines; and (4) Parental, Lenalidomide resistant and Bortezomib resistant Jeko-1 Mantle cell Lymphoma tumor cell lines. The compounds tested were three diharmaline compounds, namely the 518B562 (or simply 562), 560, and 561 compounds. In addition, a monoharmaline product designated as 518F014 was also tested. This monoharmaline product had the following structure:
# as §1
# KMM-1 cells = details: KMM-1, HMCL-A; read-out: Mean IC50
# Procedure: as §2, §1
# OCI-LY3 cells = details: OCI-LY3, ABC-DLBCL; read-out: Mean IC50
# Procedure: as §2, §1
# BxPC-3 cells = details: BxPC-3, Pancreatic; read-out: Mean IC50
# Procedure: as §2, §1
# SiHA cells = details: Cervical - SC, read-out: Mean IC50
# Procedure: as §2, §1
# ASPC-1 cells = details: ASPC-1, Pancreatic; read-out: Mean IC50
# Procedure: as §2, §1
# L363 cells = details: L363, PCL/MM; read-out: Mean IC50
# Procedure: as §2, §1
# MIA PaCa-2 cells = details: MIA PaCa-2, Pancreatic; read-out: Mean IC50
# Procedure: as §2, §1
# MOLP-8 cells = details: MOLP-8, MM IgD; read-out: Mean IC50
# Procedure: as §2, §1
# DOHH-2 cells = details: DoHH-2, GCB-DLBCL; read-out: Mean IC50
# Procedure: as §2, §1
# JIM1 cells = details: JIM1, HMCL; read-out: Mean IC50
# Procedure: as §2, §1
# H1650 (EGFR mut) cells = details: NSCLC, read-out: Mean IC50
# Procedure: as §2, §1
# MDA-MB-468 cells = details: MDA-MB-468, TNBC; read-out: Mean IC50
# Procedure: as §2, §1
# A2780 cells = details: A2780, Ovarian; read-out: Mean IC50
# Procedure: as §2, §1
# A2780CP cells = details: Ovarian, read-out: Mean IC50
# Procedure: as §2, §1
# KMS-34 cells = details: KMS-34, HMCL-B; read-out: Mean IC50
# Procedure: as §2, §1
# AN3CA cells = details: Endometrial, read-out: Mean IC50
# Procedure: as §2, §1
# MDA-MB-231 cells = details: MDA-MB-231, TNBC; read-out: Mean IC50
# Procedure: as §2, §1
# HEC-1a cells = details: Endometrial, read-out: Mean IC50
# Procedure: as §2, §1
# H1975 (EGFR mut) cells = details: NSCLC, read-out: Mean IC50
# Procedure: as §2, §1
# HCC70 cells = details: HCC70, TNBC; read-out: Mean IC50
# Procedure: as §2, §1
# A498 cells = details: A498, RCC; read-out: Mean IC50
# Procedure: as §2, §1
Compound,IC50 (RPMI-8226 cells),IC50 (FaDu cells),IC50 (KMM-1 cells),IC50 (OCI-LY3 cells),IC50 (BxPC-3 cells),IC50 (SiHA cells),IC50 (ASPC-1 cells),IC50 (L363 cells),IC50 (MIA PaCa-2 cells),IC50 (MOLP-8 cells),IC50 (DOHH-2 cells),IC50 (JIM1 cells),IC50 (H1650 (EGFR mut) cells),IC50 (MDA-MB-468 cells),IC50 (A2780 cells),IC50 (A2780CP cells),IC50 (KMS-34 cells),IC50 (AN3CA cells),IC50 (MDA-MB-231 cells),IC50 (HEC-1a cells),further results
COc1ccc2c3c([nH]c2c1)C(CC(CC1=NCCc2c1[nH]c1cc(OC)ccc21)c1ccccc1OC)=NCC3 [compound 1],1.87 µM,5.36 µM,4.2 µM,3.42 µM,4.3 µM,9.44 µM,6.44 µM,2.62 µM,3.67 µM,1.98 µM,2.25 µM,4.51 µM,8.18 µM,4.39 µM,5.9 µM,4.45 µM,4.15 µM,2.5 µM,5.72 µM,9.27 µM,IC50 (H1975 (EGFR mut) cells): 6.54 µM; IC50 (HCC70 cells): 8.02 µM; IC50 (A498 cells): 9.91 µM
CCOc1cc(C(CC2=NCCc3c2[nH]c2cc(OC)ccc32)CC2=NCCc3c2[nH]c2cc(OC)ccc32)ccc1O [compound 2],8.51 µM,13.5 µM,9.4 µM,6.58 µM,7.88 µM,17.1 µM,15.2 µM,6.26 µM,7.51 µM,5.3 µM,3.66 µM,11.5 µM,21.6 µM,9.9 µM,16.9 µM,20.2 µM,9.35 µM,6.72 µM,14.3 µM,21.6 µM,IC50 (H1975 (EGFR mut) cells): 19.5 µM; IC50 (HCC70 cells): 21.2 µM; IC50 (A498 cells): 16.8 µM
COc1ccc2c3c([nH]c2c1)C(CC(CC1=NCCc2c1[nH]c1cc(OC)ccc21)c1ccc(OC)c(OC)c1)=NCC3 [compound 4],4.09 µM,7.69 µM,6.32 µM,5.57 µM,6.05 µM,17.1 µM,11 µM,6.38 µM,4.37 µM,5.03 µM,3.17 µM,6.89 µM,13.6 µM,6.27 µM,11.5 µM,10.8 µM,4.75 µM,5.1 µM,12 µM,16.3 µM,IC50 (H1975 (EGFR mut) cells): 14.1 µM; IC50 (HCC70 cells): 11.6 µM; IC50 (A498 cells): 12.7 µM
COc1ccc2c3c([nH]c2c1)C(CC(CC1=NCCc2c1[nH]c1cc(OC)ccc21)c1cc(OC)c(O)c([N+](=O)[O-])c1)=NCC3 [compound 5],19.3 µM,22.3 µM,20.3 µM,12.3 µM,21.2 µM,36.9 µM,15.7 µM,22.2 µM,19.9 µM,14.4 µM,9.31 µM,17.7 µM,23.4 µM,14.7 µM,24.1 µM,24.6 µM,17.4 µM,11.4 µM,23.7 µM,27 µM,IC50 (H1975 (EGFR mut) cells): 28.1 µM; IC50 (HCC70 cells): 15.1 µM; IC50 (A498 cells): 22.8 µM
COc1ccc2c3c([nH]c2c1)C(CC(CC1=NCCc2c1[nH]c1cc(OC)ccc21)c1ccc(OC)c(O)c1)=NCC3 [compound 7],11.8 µM,13.7 µM,19.9 µM,11.4 µM,12.3 µM,48.1 µM,40.9 µM,11.8 µM,16.2 µM,11.7 µM,6.48 µM,14.4 µM,64.2 µM,11.2 µM,33 µM,33.7 µM,11.1 µM,11.5 µM,31.7 µM,71.1 µM,IC50 (H1975 (EGFR mut) cells): 60.8 µM; IC50 (HCC70 cells): 23.4 µM; IC50 (A498 cells): 29.3 µM
COc1ccc2c3c([nH]c2c1)C(CC(CC1=NCCc2c1[nH]c1cc(OC)ccc21)c1cc(O)c(OC)c(OC)c1)=NCC3 [compound 11],10.1 µM,16.4 µM,12.1 µM,11.3 µM,11.5 µM,15.9 µM,21.9 µM,11.6 µM,11.7 µM,10.8 µM,4.32 µM,11.5 µM,26.2 µM,12.2 µM,18.3 µM,24.9 µM,11.1 µM,8.74 µM,13.5 µM,36.3 µM,IC50 (H1975 (EGFR mut) cells): 19.5 µM; IC50 (HCC70 cells): 27.2 µM; IC50 (A498 cells): 51.3 µM
COc1ccc2c3c([nH]c2c1)C(CC(CC1=NCCc2c1[nH]c1cc(OC)ccc21)c1cc(Br)c(O)c(OC)c1)=NCC3 [compound 12],10.2 µM,18.2 µM,10.6 µM,11.3 µM,11.3 µM,50.2 µM,31.3 µM,10.9 µM,11.7 µM,3.88 µM,3.72 µM,6.04 µM,21.6 µM,11.6 µM,21.2 µM,20.5 µM,7.19 µM,5.36 µM,11.3 µM,24.8 µM,IC50 (H1975 (EGFR mut) cells): 13 µM; IC50 (HCC70 cells): 22 µM; IC50 (A498 cells): 40.9 µM
COc1ccc2c3c([nH]c2c1)C(CC(CC1=NCCc2c1[nH]c1cc(OC)ccc21)c1ccc(OC)c(O)c1I)=NCC3 [compound 14],7.53 µM,19.2 µM,23.9 µM,15.4 µM,21 µM,51.9 µM,53.1 µM,23.4 µM,22.2 µM,10.1 µM,7.9 µM,17.9 µM,25.4 µM,16.9 µM,21.2 µM,24.3 µM,14.6 µM,9.05 µM,32.4 µM,28.7 µM,IC50 (H1975 (EGFR mut) cells): 33.6 µM; IC50 (HCC70 cells): 33.3 µM; IC50 (A498 cells): 54.7 µM
COc1cccc(C(CC2=NCCc3c2[nH]c2cc(OC)ccc32)CC2=NCCc3c2[nH]c2cc(OC)ccc32)c1 [compound 15],2.95 µM,6.62 µM,7.36 µM,6.32 µM,4.22 µM,12.3 µM,5.45 µM,6.58 µM,3.63 µM,3.19 µM,5.05 µM,6.26 µM,9.6 µM,6.7 µM,8.45 µM,7.63 µM,3.5 µM,3.45 µM,6.77 µM,13.1 µM,IC50 (H1975 (EGFR mut) cells): 12.1 µM; IC50 (HCC70 cells): 11.7 µM; IC50 (A498 cells): 15.2 µM
